Data published in PMC6017736, “Indole-3-Carbonitriles as DYRK1A Inhibitors by Fragment-Based Drug Design” (Molecules : A Journal of Synthetic Chemistry and Natural …, 2018).
Marks after values point to notes of the source that are not given here.

What was measured:
DYRK1B = DYRK1B (Homo sapiens, UniProt Q9Y463); assay: Protein kinase assay ([γ-33P]-ATP, RS peptide substrate), DYRK1B; format: biochemical; settings: 15 µM ATP; read-out: IC50 DYRK 1B
Method: (§1) DYRK1A, 1B, 2, 3 (human, recombinant, expressed in E. coli as GST fusion proteins) and CLK1, 2, 3, and 4 (mouse, recombinant, expressed in E. coli as GST fusion proteins) were assayed as described for GSK-3 in Buffer A (supplemented extemporaneously with 0.15 mg BSA/mL + 1 mM DTT) with 1 µg of RS peptide ([…]) as a substrate.

DYRK1A [1] = target: T1, DYRK1A (Homo sapiens, UniProt Q13627); assay: Protein kinase assay ([γ-33P]-ATP, RS peptide substrate), DYRK1A; format: biochemical; settings: 15 µM ATP; read-out: IC50 DYRK 1A
DYRK3 = target: T2, DYRK3 (Homo sapiens, UniProt O43781); assay: Protein kinase assay ([γ-33P]-ATP, RS peptide substrate), DYRK3; format: biochemical; settings: 15 µM ATP
T2 sequence (O43781 1-588): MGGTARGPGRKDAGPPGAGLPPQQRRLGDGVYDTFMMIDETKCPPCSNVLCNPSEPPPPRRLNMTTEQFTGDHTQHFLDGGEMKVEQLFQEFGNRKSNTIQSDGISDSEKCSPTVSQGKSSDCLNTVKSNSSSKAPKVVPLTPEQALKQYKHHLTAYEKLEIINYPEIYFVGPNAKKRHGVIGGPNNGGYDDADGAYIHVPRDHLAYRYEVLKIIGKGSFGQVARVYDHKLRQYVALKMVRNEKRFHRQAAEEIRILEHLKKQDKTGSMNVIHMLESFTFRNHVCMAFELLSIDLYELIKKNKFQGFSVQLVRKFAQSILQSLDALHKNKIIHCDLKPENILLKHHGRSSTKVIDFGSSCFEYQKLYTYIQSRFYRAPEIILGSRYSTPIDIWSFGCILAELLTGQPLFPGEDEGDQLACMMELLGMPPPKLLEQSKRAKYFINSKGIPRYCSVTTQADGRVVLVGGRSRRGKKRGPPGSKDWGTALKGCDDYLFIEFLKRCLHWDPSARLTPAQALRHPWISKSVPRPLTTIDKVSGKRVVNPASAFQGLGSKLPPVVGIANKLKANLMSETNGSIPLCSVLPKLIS
Method: as §1

CLK2 = CLK2 (Mus musculus, UniProt O35491); assay: Protein kinase assay ([γ-33P]-ATP, RS peptide substrate), CLK2; format: biochemical; settings: 15 µM ATP
Method: as §1

[2] = Thermodynamic solubility, shake-flask method with HPLC quantification; format: physicochemical; settings: phosphate buffer pH 7.4, 25 °C
Method: For solubility assays an aqueous phosphate buffer pH 7.4 was used. The buffer was prepared by dissolving Na2HPO4 × 2 H2O (298 mg), KH2PO4 (19 mg) and NaCl (800 mg) in water (100 mL). The pH was adjusted to 7.4 by addition of hydrochloric acid. The thermodynamic solubility was determined using a shake-flask method with quantification by a HPLC method. The test compounds (500 µg) were incubated with aqueous phosphate buffer pH 7.4 (400 µL) in sealed Whatman MiniUniPrep vials (GE Healthcare, Freiburg, Germany). The mixtures were shaken at 25 °C and 400 rpm for 24–96 h (IKA KS 3000 ic control, IKA-Werke, Staufen, Germany). After 24 h, 48 h and 72 h, the mixtures were visually inspected for remaining solids and the solids were filtered off. The concentrations in the resulting saturated solutions were quantified by isocratic HPLC using calibration with external standard. If equilibrium was not reached after 72 h, solubility of a further sample was determined after 96 h. For calibration, a stock solution of 10 mM of the test compounds in DMSO was prepared and the stock solution was diluted with ACN to suitable concentrations. The AUC at the wavelength maxima was used for quantification.

CLK3 = CLK3 (Mus musculus, UniProt O35492); assay: Protein kinase assay ([γ-33P]-ATP, RS peptide substrate), CLK3; format: biochemical; settings: for IC50: 15 µM ATP
Method: as §1

DYRK2 = target: T3, DYRK2 (Homo sapiens, UniProt Q92630); assay: Protein kinase assay ([γ-33P]-ATP, RS peptide substrate), DYRK2; format: biochemical; settings: 15 µM ATP
T3 sequence (Q92630 1-601): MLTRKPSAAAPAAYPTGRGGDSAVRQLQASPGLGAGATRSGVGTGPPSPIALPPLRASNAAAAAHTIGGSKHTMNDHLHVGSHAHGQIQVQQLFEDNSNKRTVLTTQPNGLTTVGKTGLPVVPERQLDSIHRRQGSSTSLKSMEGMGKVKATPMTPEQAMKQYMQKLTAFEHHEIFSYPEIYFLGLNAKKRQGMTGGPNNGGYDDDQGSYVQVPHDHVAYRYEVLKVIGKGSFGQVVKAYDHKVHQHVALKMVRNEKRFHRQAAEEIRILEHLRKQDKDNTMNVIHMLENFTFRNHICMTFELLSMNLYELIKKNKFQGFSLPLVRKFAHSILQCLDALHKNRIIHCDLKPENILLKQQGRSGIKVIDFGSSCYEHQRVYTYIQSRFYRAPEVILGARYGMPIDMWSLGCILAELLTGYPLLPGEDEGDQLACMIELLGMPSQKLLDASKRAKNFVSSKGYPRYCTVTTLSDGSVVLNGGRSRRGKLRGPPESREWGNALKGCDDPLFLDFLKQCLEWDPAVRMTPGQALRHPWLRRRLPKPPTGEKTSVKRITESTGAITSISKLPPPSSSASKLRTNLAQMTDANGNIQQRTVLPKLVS
Method: as §1

CLK4 = CLK4 (Mus musculus, UniProt O35493); assay: Protein kinase assay ([γ-33P]-ATP, RS peptide substrate), CLK4; format: biochemical; settings: 15 µM ATP
Method: as §1

CLK1 = CLK1 (Mus musculus, UniProt P22518); assay: Protein kinase assay ([γ-33P]-ATP, RS peptide substrate), CLK1; format: biochemical; settings: 15 µM ATP
Method: as §1

[3] = Kinetic solubility, laser nephelometry; format: physicochemical; settings: phosphate buffer pH 7.4, nephelometry
Method: The kinetic solubility was determined using laser nephelometry. A stock solution of the test compounds in DMSO was prepared and further diluted with DMSO to achieve a dilution series of 8–12 solutions with different concentrations. The DMSO solutions (2 µL) were placed in a row on a 96-well plate and diluted with aqueous phosphate buffer pH 7.4 (198 µL). The well plate was scanned by a nephelometer (Nephelostar Plus, BMG Labtech, Ortenberg, Germany). Unsolved particles scatter the laser light which is detected by the nephelometer. The intensity of the scattered light is proportional to the particle concentration in the suspension. The intensity of the scattered light was plotted versus the concentration to obtain a kick off curve. The concentration at which the compounds began to precipitate was directly read out from the kick off curve.

DYRK1A [4] = target: T1, DYRK1A; assay: Ligand-lipophilicity efficiency (pIC50 minus calculated logP)
Method: All new compounds were evaluated based on their physicochemical properties regarding Lipinski’s rule of five and the ligand-lipophilicity efficiency (LLE). Both concepts are used to assess the druglikeness of drug development candidates. […] LLE is calculated from pIC50 minus calculated logP [46].

GSK-3 = assay: Protein kinase assay ([γ-33P]-ATP, GS-1 substrate), GSK-3
Method: First, the kinases were incubated with 10 µM solutions of the compounds and the residual activities compared to controls were measured.
Controls were performed with appropriate dilutions of DMSO. The GS-1 and RS peptide substrates were obtained from Proteogenix (Oberhausbergen, France).
After 30 min incubation at 30 °C, the reaction was stopped by harvesting onto P81 phosphocellulose supernatant (Whatman) using a FilterMate harvester (Packard) and washing in 1% phosphoric acid. Scintillation fluid was added and the radioactivity measured in a Packard counter [52].
All data points for construction of dose response curves were recorded in triplicate.

[5] = Cytotoxicity, cell viability by tetrazolium dye assay (XTT assay); format: cell-based; settings: human, HeLa cells, read-out: Viability of treated HeLa cells relative to control cells
Method: To evaluate the applicability of the 2-substituted indole-3-carbonitrile compounds in cell culture experiments, we assessed toxicity of 6f, 6h, 6s and 13b on HeLa cells by viability assays (Table 4).
The inhibitors were added to the cultured cells from stock solutions in DMSO to the desired final concentration. For cytotoxicity assays, HeLa cells were grown in 96-well plates (20,000–30,000 cells per well) and incubated with the test compounds for 3 days before cell viability was evaluated with the help of a tetrazolium dye assay (XTT assay, AppliChem GmbH, Darmstadt, Germany).

[6] = pIC50 (DYRK1A) minus calculated logP

Sequence of CLK4 (O35493 whole entry): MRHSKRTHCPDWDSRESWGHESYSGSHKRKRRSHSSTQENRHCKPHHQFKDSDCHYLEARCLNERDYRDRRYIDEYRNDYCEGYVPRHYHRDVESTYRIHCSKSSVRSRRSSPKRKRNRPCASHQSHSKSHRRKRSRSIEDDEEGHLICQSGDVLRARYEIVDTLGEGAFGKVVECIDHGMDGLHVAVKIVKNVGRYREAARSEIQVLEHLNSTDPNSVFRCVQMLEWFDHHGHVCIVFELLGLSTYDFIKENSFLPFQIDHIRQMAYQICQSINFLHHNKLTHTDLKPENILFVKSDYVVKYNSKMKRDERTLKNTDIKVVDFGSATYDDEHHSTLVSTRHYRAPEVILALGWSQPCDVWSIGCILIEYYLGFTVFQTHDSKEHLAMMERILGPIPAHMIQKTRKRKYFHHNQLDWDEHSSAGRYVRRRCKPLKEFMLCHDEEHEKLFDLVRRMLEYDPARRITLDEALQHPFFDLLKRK
Sequence of CLK1 (P22518 whole entry): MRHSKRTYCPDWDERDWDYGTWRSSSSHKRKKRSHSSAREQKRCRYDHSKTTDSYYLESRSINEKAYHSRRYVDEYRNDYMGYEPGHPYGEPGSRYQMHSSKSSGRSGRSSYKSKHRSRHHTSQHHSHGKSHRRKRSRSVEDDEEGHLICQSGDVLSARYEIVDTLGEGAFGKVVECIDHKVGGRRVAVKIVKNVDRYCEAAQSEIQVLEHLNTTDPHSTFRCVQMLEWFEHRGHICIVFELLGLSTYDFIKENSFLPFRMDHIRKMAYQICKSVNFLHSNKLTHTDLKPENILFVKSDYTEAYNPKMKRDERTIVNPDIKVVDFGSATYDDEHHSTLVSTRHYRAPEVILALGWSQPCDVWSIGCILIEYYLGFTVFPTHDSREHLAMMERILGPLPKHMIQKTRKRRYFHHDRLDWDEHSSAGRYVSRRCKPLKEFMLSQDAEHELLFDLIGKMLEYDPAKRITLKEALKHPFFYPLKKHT
Sequence of DYRK1B (Q9Y463 whole entry, the tested form may be a part): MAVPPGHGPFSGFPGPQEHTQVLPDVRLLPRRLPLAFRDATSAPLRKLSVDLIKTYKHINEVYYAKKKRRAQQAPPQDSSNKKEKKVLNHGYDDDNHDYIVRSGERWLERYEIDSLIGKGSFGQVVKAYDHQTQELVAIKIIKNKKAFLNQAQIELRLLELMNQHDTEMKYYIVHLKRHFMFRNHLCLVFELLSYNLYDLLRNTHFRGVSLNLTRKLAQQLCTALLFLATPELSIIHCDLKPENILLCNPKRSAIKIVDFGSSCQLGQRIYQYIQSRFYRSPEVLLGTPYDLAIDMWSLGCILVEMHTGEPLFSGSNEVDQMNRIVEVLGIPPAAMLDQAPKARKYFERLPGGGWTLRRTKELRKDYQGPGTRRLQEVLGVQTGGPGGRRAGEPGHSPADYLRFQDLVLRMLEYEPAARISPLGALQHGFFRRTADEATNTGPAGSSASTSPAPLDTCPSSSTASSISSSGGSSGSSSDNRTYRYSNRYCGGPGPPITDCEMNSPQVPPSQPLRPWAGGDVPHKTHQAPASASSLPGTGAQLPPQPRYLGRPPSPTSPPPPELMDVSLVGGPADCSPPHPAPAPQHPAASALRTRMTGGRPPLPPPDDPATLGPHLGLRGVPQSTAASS
Sequence of CLK3 (O35492 whole entry): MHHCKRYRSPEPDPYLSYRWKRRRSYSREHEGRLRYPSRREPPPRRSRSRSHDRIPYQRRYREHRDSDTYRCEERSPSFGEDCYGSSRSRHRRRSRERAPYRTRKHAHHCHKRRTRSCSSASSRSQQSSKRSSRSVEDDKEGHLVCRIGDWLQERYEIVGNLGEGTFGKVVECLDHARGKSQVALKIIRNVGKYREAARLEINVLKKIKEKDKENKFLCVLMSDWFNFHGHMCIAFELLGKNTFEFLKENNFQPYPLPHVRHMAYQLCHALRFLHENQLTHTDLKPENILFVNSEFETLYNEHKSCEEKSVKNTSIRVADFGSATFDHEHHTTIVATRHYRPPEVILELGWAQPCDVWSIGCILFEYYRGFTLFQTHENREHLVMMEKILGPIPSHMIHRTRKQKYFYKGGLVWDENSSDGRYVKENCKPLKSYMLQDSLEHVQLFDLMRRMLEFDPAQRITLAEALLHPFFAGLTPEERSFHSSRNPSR
Sequence of CLK2 (O35491 whole entry): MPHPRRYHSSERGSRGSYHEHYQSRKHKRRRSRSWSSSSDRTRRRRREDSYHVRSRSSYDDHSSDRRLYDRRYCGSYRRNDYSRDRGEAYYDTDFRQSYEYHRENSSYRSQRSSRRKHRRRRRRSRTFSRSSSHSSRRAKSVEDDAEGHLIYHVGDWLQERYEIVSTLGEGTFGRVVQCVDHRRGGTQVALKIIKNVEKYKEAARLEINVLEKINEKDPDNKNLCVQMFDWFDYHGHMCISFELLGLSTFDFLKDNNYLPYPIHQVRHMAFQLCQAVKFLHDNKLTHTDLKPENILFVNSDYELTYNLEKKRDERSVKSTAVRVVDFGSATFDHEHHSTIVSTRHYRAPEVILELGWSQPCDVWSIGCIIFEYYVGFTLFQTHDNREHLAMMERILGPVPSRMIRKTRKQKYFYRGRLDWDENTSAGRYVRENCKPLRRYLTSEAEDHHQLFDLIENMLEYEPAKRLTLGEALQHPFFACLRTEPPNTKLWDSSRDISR

SMILES	IC50 (DYRK1B) [nM]	IC50 (DYRK1A [1]) [nM]	IC50 (DYRK3) [nM]	IC50 (CLK2) [nM]	Sexp., therm., pH 7.4 [2]	IC50 (CLK3) [nM]	IC50 (DYRK2) [nM]	IC50 (CLK4) [nM]	IC50 (CLK1) [nM]	Sexp., kin., pH 7.4 [3]	LLE (DYRK1A [4]; Table S2)	LLE (DYRK1A [4]; [6])	Inhibition at 10 µM GSK3 (class symbol) (GSK-3; 10 µM compound)	inhibition at 10 µM (CLK3; 10 µM compound, read-out: Inhibition at 10 µM CLK3 (class symbol)) [%]	IC50 (GSK-3; read-out: IC50 GSK3, 15 µM ATP) [nM]	viability at 3 days, 1 µM [5] [%]	viability at 3 days, 3 µM [5] [%]	viability at 3 days, 10 µM [5] [%]
N#Cc1c(-c2ccccc2)[nH]c2c(Br)cccc12 [Compound 6g, 7-Bromo-2-phenyl-1H-indole-3-carbonitrile]	120	25	> 10000	433	<0.5 µM	> 10000	> 10000	33	67	14.8 ± 0.26 µM	3.34	3.34	–	–	–	–	–	–
N#Cc1c(C2CC2)[nH]c2c(I)cccc12 [Compound 6r, 2-Cyclopropyl-7-iodo-1H-indole-3-carbonitrile]	500	140	> 10000	1000	<0.5 µM	–	8000	100	110	38.1 (37.6–38.6) µM	3.37	3.37	- (-: less than 20% inhibition at 10 µM, IC50 was not determined)	< 20	–	–	–	–
N#Cc1c[nH]c2c(Cl)cccc12 [Compound 6a, 7-Chloro-1H-indole-3-carbonitrile]	> 10000	–	> 10000	> 10000	143 ± 6.3^c µM	> 10000	> 10000	> 10000	–	116 ± 14 µM	–	–	–	–	> 10000	–	–	–
N#Cc1c(-c2ccccc2)[nH]c2c(I)cccc12 [Compound 6h, 7-Iodo-2-phenyl-1H-indole-3-carbonitrile]	570	–	> 10000	2000	<0.5 µM	> 10000	> 10000	50	80	4.57 (4.11–5.03) µM	–	–	–	–	–	97	97	87
O=C(O)c1nc2ccccc2c2[nH]c3c(I)cccc3c12 [KuFal194 (5), 10-iodo-11H-indolo[3,2-c]quinoline-6-carboxylic acid, reference compound]	–	–	–	–	< 0.5 µM	–	–	–	–	5.28 (4.99–5.57) µM	–	–	–	–	–	78	75	45
